Literature values in patent US20240230638A9, “SMALL MOLECULE SCREENING ASSAY FOR DIGITAL MICROFLUIDIC PLATFORM” (NICOYA LIFESCIENCES, INC., priority 2021, published 2024).

conditions: measure of hydrophobicity, literature values

octanol-water partitioning coefficients (logKow)	Compound
6.3	CC(C)/N=c1\cc2n(-c3ccc(Cl)cc3)c3ccccc3nc-2cc1Nc1ccc(Cl)cc1 [Clofazimine]
5.19	O=C(O)c1ccccc1Nc1cccc(C(F)(F)F)c1 [Flufenamic acid]
3.97	CC(C)Cc1ccc(C(C)C(=O)O)cc1 (stereo not shown) [Ibuprofen]

Compound	octanol-water partitioning coefficients (logKow)
NS(=O)(=O)c1ccccc1 [Benzenesulfonamide]	0.31
